According to patent US5952327A, “Phosphonic acid-substituted benzazepinone-n-acetic acid derivatives process for their preparation and pharmaceutical compositions comprising them” (Solvay Pharmaceuticals GmbH, priority 1997, dated 1999):

Experiments:
[1] = system: endothelin-converting enzyme (ECE); experiment: In-vivo ECE inhibitory action: blood pressure increase induced by BIG-ET in rats; set-up: species or system male CD rats
Procedure: ET is an endogenous strongly vasoconstrictory active substance. An increase in the ET level leads to a blood pressure increase. On infusion of BIG-ET, a blood pressure increase takes place to the extent at which ET is formed from this by ECE-catalysed cleavage. As a measure of the ECE-inhibitory action of the substances, their inhibitory action on the blood pressure increase induced by infusion of BIG-ET was determined.
The experiments were carried out using male CD® rats from Charles River Wiga having a body weight of 220-280 g. Under ketamine/xylazine anaesthesia, a catheter for substance administration was tied into the left jugular vein and a second for the measurement of the blood pressure was tied into the left carotid artery of the animals. After a recovery time of 30 minutes, the test substance was administered intravenously (i.v.) or intraduodenally (i.d.) to the animals as a solution. After administration of the test substances, the animals each received BIG-ET in a dose of 0.5 nmole/kg intravenously. The period between administration of the test substance and the administration of BIG-ET was 5 minutes in each case on i.v. administration, 15 minutes in each case on i.d. administration of the test substances of Example Nos. 18 and 22, and 30 minutes in each case on i.d. administration of the test substances of Example Nos. 8 and 20. During the next 30 minutes, the systolic and the diastolic blood pressure were recorded every 5 minutes. With untreated animals, the infusion of 0.5 nmol/kg of big endothelin leads reproducibly to a drastic blood pressure increase, which lasts about 30 minutes. The maximum of the blood pressure increase is reached after about 5 minutes.
In the following Table 2, the maximum increase in the blood pressure after BIG-ET administration is indicated for control animals treated with placebo solution and for animals which have been pretreated with the test substance solutions in different doses.

[2] = Determination of the minimum toxic dose (i.v.) in rats; type: in vivo; settings: 215 mg/kg i.v., observed for one week
Procedure: I.v. maximum doses of 215 mg/kg of the test substances (dissolved in 0.1 N aqueous NaOH solution, whose pH had been adjusted to 7.1) were administered to groups of 10 rats each of 250 g body weight (age 5 to 6 weeks). From the time of administration, the animals were carefully observed for 5 hours for clinically recognizable signs of toxicity. Moreover, they were observed twice daily until one week had passed. After expiry of this week, each individual animal was completely dissected and all organs were examined macroscopically. If death or severe toxic symptoms was observed, increasingly smaller doses were administered to further rats until toxic symptoms no longer occured. The lowest dose which caused death or severe toxic symptoms was determined to be the minimum toxic dose.

[3] = molecular target: neutral endopeptidase (NEP) (E.C. 3.4.24.11) (Homo sapiens, UniProt P08473); experiment: In-vitro NEP inhibitory action (hydrolytic degradation of Met-encephalin); type: biochemical; settings: purified NEP, Met-encephalin substrate, pH 7.4, 37° C.; read-out: IC50 value for NEP inhibition
neutral endopeptidase (NEP) (E.C. 3.4.24.11), sequence (P08473 whole entry, species assumed): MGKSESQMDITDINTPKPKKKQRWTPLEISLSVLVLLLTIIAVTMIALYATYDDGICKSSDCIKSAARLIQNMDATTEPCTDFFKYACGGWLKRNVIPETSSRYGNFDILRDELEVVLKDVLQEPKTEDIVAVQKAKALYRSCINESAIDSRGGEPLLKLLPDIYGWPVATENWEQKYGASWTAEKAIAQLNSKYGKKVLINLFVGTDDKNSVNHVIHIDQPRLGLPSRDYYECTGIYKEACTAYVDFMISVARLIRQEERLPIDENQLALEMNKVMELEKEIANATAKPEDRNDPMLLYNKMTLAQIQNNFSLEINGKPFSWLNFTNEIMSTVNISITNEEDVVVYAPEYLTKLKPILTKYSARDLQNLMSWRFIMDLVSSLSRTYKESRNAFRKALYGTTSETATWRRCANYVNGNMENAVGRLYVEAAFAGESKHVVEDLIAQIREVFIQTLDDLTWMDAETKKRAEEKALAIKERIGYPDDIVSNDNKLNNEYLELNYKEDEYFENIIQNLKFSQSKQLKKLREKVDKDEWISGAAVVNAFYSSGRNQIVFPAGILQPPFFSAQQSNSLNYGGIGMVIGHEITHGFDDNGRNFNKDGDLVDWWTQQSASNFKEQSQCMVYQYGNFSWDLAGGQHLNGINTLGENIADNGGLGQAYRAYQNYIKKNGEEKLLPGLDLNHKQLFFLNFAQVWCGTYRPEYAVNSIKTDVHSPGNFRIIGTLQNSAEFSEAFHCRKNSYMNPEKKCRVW
Procedure: In this test, the measure of the inhibitory activity of the substances determined was their IC50 value. The IC50 value of a test substance having enzyme-inhibitory activity is that concentration of the test substance at which 50% of the enzymatic activity of the NEP is blocked.
To carry out the test, respective 100 μl samples of various incubation solutions comprising 10 ng of purified NEP (E.C. 3.4.24.11) and different amounts of test substance and 20 μl substrate (Met-encephalin) and 50 mM tris buffer (tris(hydroxymethyl)aminomethane/HCl, pH 7.4) were prepared. […]
The incubation solutions were incubated for 30 minutes at 37° C. in a shaking water bath. […] The stopped incubation solution was then centrifuged at 12,000×g for 3 minutes, and the concentrations of unreacted substrate and of hydrolysis products formed by the enzymatic reaction were determined in the supernatant. For this purpose, samples of the respective supernatants were separated by high-pressure liquid chromatography (HPLC) on hydrophobicized silica gel, and the products of the enzymatic reaction and unreacted substrate were determined photometrically at a wavelength of 205 nm. […]
The IC50 value of the test substances was calculated in a known manner from the concentrations of hydrolysis products and unreacted substrate measured in the different samples.

[4] = system: diuresis/natriuresis in volume-loaded rats; experiment: In-vivo effect on diuresis/natriuresis in volume-loaded rats; set-up: species or system male Wistar rats; settings: 60 min collection
Procedure: The in-vivo activity was investigated in volume-loaded rats. In this experiment, a high cardiac filling pressure was produced by an infusion of isotonic sodium chloride solution, as a consequence of which ANP release and, as a result, diuresis/natriuresis occurred.
The experiments were carried out using male Wistar rats having a body weight of 200-400 g. Under neuroleptic analgesia (fentanyl; Hypnorm®, manufacturer Janssen), a catheter was tied into the right femoral vein for the background infusion and the volume loading with isotonic sodium chloride solution. After opening the abdomen, a second catheter was inserted in the bladder and the urethra was tied off so that a measurement of urinary volume, natriuresis and kaliuresis was possible.
The abdomen was closed again, and the animals received a continuous infusion of sodium chloride solution (0.5 ml/100 g of body weight) over the total experimental period of 2 hours. After an equilibration period of 30 minutes, urine samples were collected three times in each case over a period of 10 minutes in a preliminary phase before test substance administration. These preliminary values ("predrug" values) were determined in order to check that a continuous urine flow was taking place in the test animals.
The solutions comprising the test substances were then administered intravenously (bolus injection in the femoral vein) or orally (by means of stomach tube) to groups of 10 rats in each case. For both administration forms, one control animal group in each case received only placebo solutions which contained no active compound. 5 minutes after i.v. administration or 120 minutes after oral administration of the substances, the rats were loaded i.v. with an increased volume of sodium chloride solution (2 ml/100 g of body weight in 2 minutes) and the urine was collected over a period of 60 minutes. The amounts of urine produced in this period were determined, and the sodium and potassium contents contained therein were measured. From the amounts of urine produced, the increase in excretion which took place under volume loading is read off compared with the preliminary values.
In the following Table 1, the increases in urine excretion which have taken place under volume loading after administration of the test substances are indicated in % relative to the urine excretion which has taken place under volume loading after administration of placebo. Furthermore, the amounts of sodium and potassium excreted under volume loading after test substance administration are also indicated in % of the amounts of sodium and potassium excreted under volume loading after administration of placebo. The example numbers in Tables 1 and 2 relate to the subsequent synthesis examples.

[5] = 30 μmol/kg i.d., 30 min before BIG-ET 0.5 nmole/kg i.v., control 40
[6] = 30 μmol/kg i.d., 30 min before BIG-ET 0.5 nmole/kg i.v., control 61
[7] = 30 μmol/kg i.d., 15 min before BIG-ET 0.5 nmole/kg i.v., control 40
[8] = 30 μmol/kg i.d., 15 min before BIG-ET 0.5 nmole/kg i.v., control 61

Row | Compound | Blood pressure increase after BIG-ET administration, diastolic pressure (maximum) [1, 5] [mm Hg] | Blood pressure increase after BIG-ET administration, systolic pressure (maximum) [1, 6] [mm Hg] | Blood pressure increase after BIG-ET administration, diastolic pressure (maximum) [1, 7] [mm Hg] | Blood pressure increase after BIG-ET administration, systolic pressure (maximum) [1, 8] [mm Hg] | Increase in urine excretion under volume loading after administration of test substance in % relative to the urine excretion under volume loading after administration of placebo ([4]; 30.0 μmole/kg p.o.) [%] | K excretion under volume loading: amount excreted after administration of test substance in % of the amount excreted after administration of placebo ([4]; 30.0 μmole/kg p.o.) [%] | Na excretion under volume loading: amount excreted after administration of test substance in % of the amount excreted after administration of placebo ([4]; 30.0 μmole/kg p.o.) [%] | also measured
1 | CCOP(=O)(CC1(C(=O)N[C@H]2CCc3ccccc3N(CC(=O)OC(C)(C)C)C2=O)CCCC1)OCc1ccccc1 (stereo partly drawn) [Example 8, tert-Butyl (3S)-3-(1-benzylethylphosphonomethylcyclopentane-1-carbonylamino)-2,3,4,5-tetrahydro-2-oxo-1H-1-benzazepine-1-acetate] | 26 | 25 | – | – | – | – | – | –
2 | O=C(O)CN1C(=O)[C@@H](NC(=O)C2(CP(=O)(O)O)CCCC2)CCc2ccccc21 [Example 2, (3S)-3-(1-Phosphonomethylcyclopentane-1-carbonylamino)-2,3,4,5-tetrahydro-2-oxo-1H-1-benzazepine-1-acetic acid] | – | – | – | – | – | – | – | signs of toxicity at maximum dose [2]: no significant signs of toxicity; IC50 [3]: 1.7 nM; Increase in urine excretion under volume loading after administration of test substance in % relative to the urine excretion under volume loading after administration of placebo ([4]; 6.0 μmole/kg i.v.): 117%; K excretion under volume loading: amount excreted after administration of test substance in % of the amount excreted after administration of placebo ([4]; 6.0 μmole/kg i.v.): 116%; Na excretion under volume loading: amount excreted after administration of test substance in % of the amount excreted after administration of placebo ([4]; 6.0 μmole/kg i.v.): 147%; Increase in urine excretion under volume loading after administration of test substance in % relative to the urine excretion under volume loading after administration of placebo ([4]; 20.0 μmole/kg i.v.): 149%; K excretion under volume loading: amount excreted after administration of test substance in % of the amount excreted after administration of placebo ([4]; 20.0 μmole/kg i.v.): 182%; Na excretion under volume loading: amount excreted after administration of test substance in % of the amount excreted after administration of placebo ([4]; 20.0 μmole/kg i.v.): 246%; Blood pressure increase after BIG-ET administration, diastolic pressure (maximum) ([1]; 1 mg/kg i.v., 5 min before BIG-ET 0.5 nmole/kg i.v., control 32): 23 mm Hg; Blood pressure increase after BIG-ET administration, systolic pressure (maximum) ([1]; 1 mg/kg i.v., 5 min before BIG-ET 0.5 nmole/kg i.v., control 65): 38 mm Hg; Blood pressure increase after BIG-ET administration, diastolic pressure (maximum) ([1]; 3 mg/kg i.v., 5 min before BIG-ET 0.5 nmole/kg i.v., control 32): 14 mm Hg; Blood pressure increase after BIG-ET administration, systolic pressure (maximum) ([1]; 3 mg/kg i.v., 5 min before BIG-ET 0.5 nmole/kg i.v., control 65): 27 mm Hg; Blood pressure increase after BIG-ET administration, diastolic pressure (maximum) ([1]; 10 mg/kg i.v., 5 min before BIG-ET 0.5 nmole/kg i.v., control 32): 0.4 mm Hg; Blood pressure increase after BIG-ET administration, systolic pressure (maximum) ([1]; 10 mg/kg i.v., 5 min before BIG-ET 0.5 nmole/kg i.v., control 65): -1 mm Hg
3 | CCOP(=O)(CC1(C(=O)N[C@H]2CCc3ccccc3N(CC(=O)OC(C)(C)C)C2=O)CCCC1)OCOC(=O)C(C)(C)C (stereo partly drawn) [Example 18, tert-Butyl (3S)-3-[1-(pivaloyloxymethylethylphosphono-methyl)cyclopentane-1-carbonylamino]-2,3,4,5-tetrahydro-2-oxo-1H-benzazepine-1-acetate] | – | – | 17 | 19 | – | – | – | –
4 | CCOC(=O)CN1C(=O)[C@@H](NC(=O)C2(CP(=O)(O)O)CCCC2)CCc2ccccc21 [Example 13, Ethyl (3S)-3-(1-phosphonomethylcyclopentane-1-carbonylamino)-2,3,4,5-tetrahydro-2-oxo-1H-1-benzazepine-1-acetate] | – | – | – | – | 168 | 87 | 128 | –
5 | CCOP(=O)(O)CC1(C(=O)NC2CCc3ccccc3N(CC(=O)O)C2=O)CCCC1 (stereo not shown) [Example 22] | – | – | 21 | 36 | 127 | 106 | 161 | –
6 | CC(C)(C)OC(=O)CN1C(=O)[C@@H](NC(=O)C2(CP(=O)(O)O)CCCC2)CCc2ccccc21 [Example 20, tert-Butyl (3S)-3-[1-phosphonomethylcyclopentane-1-carbonylamino)-2,3,4,5-tetrahydro-2-oxo-1H-1-benzazepine-1-acetate] | 37 | 50 | – | – | – | – | – | –
